According to the NIST ThermoML archive (doi:10.1021/je0601513):

What was measured:
[1] = molar heat capacity at constant pressure; xn = mol fraction of the nth substance listed; conditions: 101 kPa, Liquid, Small sample (50 mg) DSC
[2] = excess molar enthalpy (molar enthalpy of mixing); xn = mol fraction of the nth substance listed; conditions: 101 kPa, Liquid
[3] = refractive index (Na D-line) (dimensionless); xn = mol fraction of the nth substance listed; conditions: 101 kPa, Liquid, Standard Abbe refractometry

C[S+](C)[O-] [dimethyl sulfoxide] + CCCO
Conditions | excess molar enthalpy [kcal/mol] | molar heat capacity at constant pressure [J/K/mol] | refractive index
[1], 288.15 K, x1 = 0.0514 | – | 138.1 | –
[1], 288.15 K, x1 = 0.1127 | – | 137.3 | –
[1], 288.15 K, x1 = 0.2114 | – | 136.2 | –
[1], 288.15 K, x1 = 0.3163 | – | 135.5 | –
[1], 288.15 K, x1 = 0.418 | – | 135.3 | –
[1], 288.15 K, x1 = 0.5029 | – | 135.7 | –
[1], 288.15 K, x1 = 0.6216 | – | 136.7 | –
[1], 288.15 K, x1 = 0.7068 | – | 138.1 | –
[1], 288.15 K, x1 = 0.7975 | – | 140 | –
[1], 288.15 K, x1 = 0.8537 | – | 141.7 | –
[1], 288.15 K, x1 = 0.8994 | – | 143.1 | –
[1], 288.15 K, x1 = 0.9429 | – | 144.6 | –
[1], 298.15 K, x1 = 0.0514 | – | 143.6 | –
[1], 298.15 K, x1 = 0.1127 | – | 142.3 | –
[1], 298.15 K, x1 = 0.2114 | – | 140.3 | –
[1], 298.15 K, x1 = 0.3163 | – | 139.1 | –
[1], 298.15 K, x1 = 0.418 | – | 138.6 | –
[1], 298.15 K, x1 = 0.5029 | – | 138.6 | –
[1], 298.15 K, x1 = 0.6216 | – | 139.7 | –
[1], 298.15 K, x1 = 0.7068 | – | 141.1 | –
[1], 298.15 K, x1 = 0.7975 | – | 143.5 | –
[1], 298.15 K, x1 = 0.8537 | – | 145.4 | –
[1], 298.15 K, x1 = 0.8994 | – | 147.4 | –
[1], 298.15 K, x1 = 0.9429 | – | 149.4 | –
[1], 308.15 K, x1 = 0.0514 | – | 149.7 | –
[1], 308.15 K, x1 = 0.1127 | – | 147.9 | –
[1], 308.15 K, x1 = 0.2114 | – | 145.2 | –
[1], 308.15 K, x1 = 0.3163 | – | 143 | –
[1], 308.15 K, x1 = 0.418 | – | 141.4 | –
[1], 308.15 K, x1 = 0.5029 | – | 140.9 | –
[1], 308.15 K, x1 = 0.6216 | – | 141.2 | –
[1], 308.15 K, x1 = 0.7068 | – | 142.4 | –
[1], 308.15 K, x1 = 0.7975 | – | 144.7 | –
[1], 308.15 K, x1 = 0.8537 | – | 146.8 | –
[1], 308.15 K, x1 = 0.8994 | – | 148.7 | –
[1], 308.15 K, x1 = 0.9429 | – | 151 | –
[2], 288.15 K, x1 = 0.042 | 0.0514 | – | –
[2], 288.15 K, x1 = 0.0807 | 0.0896 | – | –
[2], 288.15 K, x1 = 0.1163 | 0.118 | – | –
[2], 288.15 K, x1 = 0.1493 | 0.139 | – | –
[2], 288.15 K, x1 = 0.2084 | 0.168 | – | –
[2], 288.15 K, x1 = 0.2598 | 0.182 | – | –
[2], 288.15 K, x1 = 0.3449 | 0.196 | – | –
[2], 288.15 K, x1 = 0.4124 | 0.196 | – | –
[2], 288.15 K, x1 = 0.5129 | 0.189 | – | –
[2], 288.15 K, x1 = 0.6124 | 0.173 | – | –
[2], 288.15 K, x1 = 0.6781 | 0.158 | – | –
[2], 288.15 K, x1 = 0.7595 | 0.128 | – | –
[2], 288.15 K, x1 = 0.8456 | 0.093 | – | –
[2], 288.15 K, x1 = 0.8634 | 0.0822 | – | –
[2], 288.15 K, x1 = 0.8939 | 0.0676 | – | –
[2], 288.15 K, x1 = 0.9267 | 0.0488 | – | –
[2], 288.15 K, x1 = 0.9619 | 0.0265 | – | –
[2], 298.15 K, x1 = 0.0422 | 0.0495 | – | –
[2], 298.15 K, x1 = 0.0809 | 0.0875 | – | –
[2], 298.15 K, x1 = 0.1166 | 0.117 | – | –
[2], 298.15 K, x1 = 0.1497 | 0.141 | – | –
[2], 298.15 K, x1 = 0.2089 | 0.167 | – | –
[2], 298.15 K, x1 = 0.2604 | 0.182 | – | –
[2], 298.15 K, x1 = 0.3456 | 0.199 | – | –
[2], 298.15 K, x1 = 0.4131 | 0.201 | – | –
[2], 298.15 K, x1 = 0.5137 | 0.194 | – | –
[2], 298.15 K, x1 = 0.6131 | 0.175 | – | –
[2], 298.15 K, x1 = 0.6787 | 0.16 | – | –
[2], 298.15 K, x1 = 0.7602 | 0.134 | – | –
[2], 298.15 K, x1 = 0.8086 | 0.111 | – | –
[2], 298.15 K, x1 = 0.8638 | 0.0853 | – | –
[2], 298.15 K, x1 = 0.8942 | 0.0674 | – | –
[2], 298.15 K, x1 = 0.9269 | 0.0492 | – | –
[2], 298.15 K, x1 = 0.9621 | 0.0265 | – | –
[2], 308.15 K, x1 = 0.0421 | 0.0507 | – | –
[2], 308.15 K, x1 = 0.0808 | 0.0872 | – | –
[2], 308.15 K, x1 = 0.1234 | 0.122 | – | –
[2], 308.15 K, x1 = 0.1495 | 0.14 | – | –
[2], 308.15 K, x1 = 0.2087 | 0.167 | – | –
[2], 308.15 K, x1 = 0.2601 | 0.183 | – | –
[2], 308.15 K, x1 = 0.3454 | 0.198 | – | –
[2], 308.15 K, x1 = 0.4128 | 0.199 | – | –
[2], 308.15 K, x1 = 0.5134 | 0.193 | – | –
[2], 308.15 K, x1 = 0.612 | 0.175 | – | –
[2], 308.15 K, x1 = 0.6784 | 0.16 | – | –
[2], 308.15 K, x1 = 0.7599 | 0.129 | – | –
[2], 308.15 K, x1 = 0.8084 | 0.111 | – | –
[2], 308.15 K, x1 = 0.8636 | 0.082 | – | –
[2], 308.15 K, x1 = 0.8941 | 0.0698 | – | –
[2], 308.15 K, x1 = 0.9268 | 0.049 | – | –
[2], 308.15 K, x1 = 0.962 | 0.027 | – | –
[3], 288.15 K, x1 = 0.0533 | – | – | 1.3942
[3], 288.15 K, x1 = 0.0938 | – | – | 1.3979
[3], 288.15 K, x1 = 0.1708 | – | – | 1.405
[3], 288.15 K, x1 = 0.2592 | – | – | 1.4132
[3], 288.15 K, x1 = 0.346 | – | – | 1.4212
[3], 288.15 K, x1 = 0.4294 | – | – | 1.429
[3], 288.15 K, x1 = 0.5115 | – | – | 1.4367
[3], 288.15 K, x1 = 0.5981 | – | – | 1.4449
[3], 288.15 K, x1 = 0.6853 | – | – | 1.4532
[3], 288.15 K, x1 = 0.7596 | – | – | 1.4603
[3], 288.15 K, x1 = 0.8438 | – | – | 1.4685
[3], 288.15 K, x1 = 0.9368 | – | – | 1.4774
[3], 298.15 K, x1 = 0.0554 | – | – | 1.3889
[3], 298.15 K, x1 = 0.1366 | – | – | 1.3966
[3], 298.15 K, x1 = 0.22 | – | – | 1.4045
[3], 298.15 K, x1 = 0.2987 | – | – | 1.4119
[3], 298.15 K, x1 = 0.4289 | – | – | 1.4239
[3], 298.15 K, x1 = 0.5022 | – | – | 1.4307
[3], 298.15 K, x1 = 0.5992 | – | – | 1.4398
[3], 298.15 K, x1 = 0.677 | – | – | 1.4472
[3], 298.15 K, x1 = 0.7656 | – | – | 1.4558
[3], 298.15 K, x1 = 0.8358 | – | – | 1.4627
[3], 298.15 K, x1 = 0.9181 | – | – | 1.4705
[3], 298.15 K, x1 = 0.9646 | – | – | 1.4747
[3], 308.15 K, x1 = 0.0537 | – | – | 1.3843
[3], 308.15 K, x1 = 0.1336 | – | – | 1.3916
[3], 308.15 K, x1 = 0.2147 | – | – | 1.3991
[3], 308.15 K, x1 = 0.2987 | – | – | 1.407
[3], 308.15 K, x1 = 0.3876 | – | – | 1.4152
[3], 308.15 K, x1 = 0.4707 | – | – | 1.4229
[3], 308.15 K, x1 = 0.5552 | – | – | 1.4308
[3], 308.15 K, x1 = 0.6418 | – | – | 1.4389
[3], 308.15 K, x1 = 0.7191 | – | – | 1.4462
[3], 308.15 K, x1 = 0.7998 | – | – | 1.454
[3], 308.15 K, x1 = 0.877 | – | – | 1.4614
[3], 308.15 K, x1 = 0.965 | – | – | 1.4698
